Test results published in patent US20020137929A1, “1 - (3-heterocyclylphenyl) isothiourea, -isourea, -guanidine and -amidine herbicidal agents” (Intellectual Property Department, BASF Aktiengesellschaft, priority 1998, published 2002).

Tests used:
[1] = tested on: GLXMAW (Soybean, Williams); assay: Postemergence herbicidal evaluation; assay type: in vivo, Glycine max, (L.) Merr. cv Williams; details: postemergence
In short: (§1)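 First, seedlings were raised for around two weeks. Next, test material in 50/50 acetone/water containing 0.5% TWEEN 20 was sprayed through a nozzle at 40 psi, equivalent to about 0.0156–0.500 kg/ha. Finally, after 4–5 weeks in the greenhouse, plants were rated 0–9.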

ZEAMX (Corn, Field) = assay: Postemergence herbicidal evaluation; assay type: in vivo, Zea mays; details: postemergence
In short: as §1

SETVI (Foxtail, Green) [2] = assay: Postemergence herbicidal evaluation; assay type: in vivo, Setaria viridis; details: postemergence
In short: as §1

[3] = tested on: CHEAL (Lambsquarters, Common); assay: Postemergence herbicidal evaluation; assay type: in vivo, Chenopodium album; details: postemergence
In short: as §1

[4] = tested on: TRZAWR (Wheat, Winter, cv Riband); assay: Postemergence herbicidal evaluation; assay type: in vivo, Triticum aestivum; details: postemergence
In short: as §1

GALAP (Galium) = assay: Preemergence herbicidal evaluation; assay type: in vivo, Galium aparine; details: rated 4-5 weeks after treatment
In short: (§2)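 Scores (0–9) reflect visual comparison with control plants for stand, vigor, malformation, size and chlorosis. Compound was applied to the soil after sowing, before emergence, as an aqueous acetone spray (about 0.0156–0.500 kg/ha), and cups were kept in a greenhouse for 4–5 weeks.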

AMBEL (Ragweed, Common) = assay: Preemergence herbicidal evaluation; assay type: in vivo, Ambrosia artemisifolia; details: rated 4-5 weeks after treatment
From the text: Results of herbicide evaluation are expressed on a rating scale (0-9). The scale is based upon a visual observation of plant stand, vigor, malformation, size, chlorosis and overall plant appearance as compared with a control.
The preemergence herbicidal activity of the test compounds of the present invention is exemplified by the following tests in which the seeds of a variety of monocotyledonous and dicotyledonous plants are separately mixed with potting soil and planted on top of approximately one inch of soil in separate pint cups. After planting, the cups are sprayed with the selected aqueous acetone solution containing test compound in sufficient quantity to provide the equivalent of about 0.0156 to 0.500 kg per hectare of test compound per cup. The treated cups are then placed on greenhouse benches, watered and cared for in accordance with conventional greenhouse procedures. From four to five weeks after treatment, the tests are terminated and each cup is examined and rated according to the rating system provided in Example 37.
The compounds evaluated are reported by compound number given in Example 37.

ABUTH (Velvetleaf) = assay: Postemergence herbicidal evaluation; assay type: in vivo, Abutilon theophrasti; details: postemergence
In short: as §1

CYPIR (Rice Flatsedge) = assay: Preemergence weed control under flooded paddy conditions; assay type: in vivo, Cyperus iria; details: rated 3-4 weeks after treatment
In short: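 Silt loam, seeds in top 0.5 cm; flood held 1.5-3 cm; test cpd as acetone/water 50/50 into flood water, ~0.0313-0.500 kg/ha a.i.; greenhouse 3-4 wk; visual 0-9 score vs control.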

ORYSAT (Rice, Tebonnet) = assay: Postemergence herbicidal evaluation; assay type: in vivo, Oryza sativa, (L.) Tebonnet; details: postemergence
In short: as §1

SETVI (Foxtail, Green) [5] = assay: Preemergence herbicidal evaluation; assay type: in vivo, Setaria viridis; details: rated 4-5 weeks after treatment
In short: as §2

[6] = rate 0.0156 kg/ha, rating scale 0-9
[7] = rate 0.0313 kg/ha, rating scale 0-9
[8] = rate 0.0625 kg/ha, rating scale 0-9
[9] = rate 0.1250 kg/ha, rating scale 0-9
[10] = rate 0.2500 kg/ha, rating scale 0-9

Cn1c(C(F)(F)F)cc(=O)n(-c2cc(N=C3SCC(=O)N3Cc3ccc(S(N)(=O)=O)cc3)c(Cl)cc2F)c1=O [Compound 135, Alpha-{2-{{2-chloro-5-[3,6-dihydro-3-methyl-2,6-dioxo-4-(trifluoromethyl)-1(2H)-pyrimidinyl]-4-fluorophenyl}imino}-4-oxo-3-thiazolidinyl}-p-toluenesulfonamide]
herbicidal rating GLXMAW ([1]; rate 0.0156 kg/ha): 5.0 | herbicidal rating GLXMAW ([1]; rate 0.0313 kg/ha): 5.0 | herbicidal rating GLXMAW ([1]; rate 0.0625 kg/ha): 5.0 | herbicidal rating ZEAMX (ZEAMX (Corn, Field); rate 0.0156 kg/ha): 3.5 | herbicidal rating ZEAMX (ZEAMX (Corn, Field); rate 0.0313 kg/ha): 4.0 | herbicidal rating ZEAMX (ZEAMX (Corn, Field); rate 0.0625 kg/ha): 4.0 | herbicidal rating SETVI (SETVI (Foxtail, Green) [2]; rate 0.0156 kg/ha): 2.0 | herbicidal rating SETVI (SETVI (Foxtail, Green) [2]; rate 0.0313 kg/ha): 4.0 | herbicidal rating SETVI (SETVI (Foxtail, Green) [2]; rate 0.0625 kg/ha): 6.0 | herbicidal rating CHEAL ([3]; rate 0.0156 kg/ha): 4.0 | herbicidal rating CHEAL ([3]; rate 0.0313 kg/ha): 7.0 | herbicidal rating CHEAL ([3]; rate 0.0625 kg/ha): 9.0 | herbicidal rating TRZAWR ([4]; rate 0.0156 kg/ha): 2.5 | herbicidal rating TRZAWR ([4]; rate 0.0313 kg/ha): 2.5 | herbicidal rating TRZAWR ([4]; rate 0.0625 kg/ha): 3.0 | Preemergence herbicidal rating GALAP (GALAP (Galium); [6]): 0.0 | Preemergence herbicidal rating GALAP (GALAP (Galium); [7]): 0.0 | Preemergence herbicidal rating GALAP (GALAP (Galium); [8]): 0.0 | Preemergence herbicidal rating GALAP (GALAP (Galium); [9]): 0.0 | Preemergence herbicidal rating GALAP (GALAP (Galium); [10]): 1.0 | Preemergence herbicidal rating AMBEL (AMBEL (Ragweed, Common); [6]): 0.0 | Preemergence herbicidal rating AMBEL (AMBEL (Ragweed, Common); [7]): 0.0 | Preemergence herbicidal rating AMBEL (AMBEL (Ragweed, Common); [8]): 0.0 | Preemergence herbicidal rating AMBEL (AMBEL (Ragweed, Common); [9]): 4.0 | Preemergence herbicidal rating AMBEL (AMBEL (Ragweed, Common); [10]): 7.0 | herbicidal rating ABUTH (ABUTH (Velvetleaf); rate 0.0156 kg/ha): 4.0 | herbicidal rating ABUTH (ABUTH (Velvetleaf); rate 0.0313 kg/ha): 9.0 | herbicidal rating ABUTH (ABUTH (Velvetleaf); rate 0.0625 kg/ha): 9.0 | herbicidal effect rating, CYPIR (CYPIR (Rice Flatsedge); 0.0313 kg/ha): 5.0 | herbicidal effect rating, CYPIR (CYPIR (Rice Flatsedge); 0.0625 kg/ha): 6.0 | herbicidal effect rating, CYPIR (CYPIR (Rice Flatsedge); 0.1250 kg/ha): 7.0 | herbicidal effect rating, CYPIR (CYPIR (Rice Flatsedge); 0.2500 kg/ha): 7.0 | herbicidal rating ORYSAT (ORYSAT (Rice, Tebonnet); rate 0.0156 kg/ha): 2.0 | herbicidal rating ORYSAT (ORYSAT (Rice, Tebonnet); rate 0.0313 kg/ha): 2.0 | herbicidal rating ORYSAT (ORYSAT (Rice, Tebonnet); rate 0.0625 kg/ha): 2.5 | Preemergence herbicidal rating SETVI (SETVI (Foxtail, Green) [5]; [6]): 0.0 | Preemergence herbicidal rating SETVI (SETVI (Foxtail, Green) [5]; [7]): 0.0 | Preemergence herbicidal rating SETVI (SETVI (Foxtail, Green) [5]; [8]): 2.0 | Preemergence herbicidal rating SETVI (SETVI (Foxtail, Green) [5]; [9]): 4.0 | Preemergence herbicidal rating SETVI (SETVI (Foxtail, Green) [5]; [10]): 7.0

C#CC(C)N1C(=O)CSC1=Nc1cc(-n2c(=O)cc(C(F)(F)F)n(C)c2=O)c(F)cc1Cl (stereo not drawn) [Compound 165, 3-{4-Chloro-2-fluoro-5-{[3-(1-methyl-2-propynyl)-4-oxo-2-thiazolidinylidene]amino}phenyl}-1-methyl-6-(trifluoromethyl)-2,4(1H,3H)-pyrimidinedione]
herbicidal rating GLXMAW ([1]; rate 0.0156 kg/ha): 5.0 | herbicidal rating GLXMAW ([1]; rate 0.0313 kg/ha): 5.0 | herbicidal rating GLXMAW ([1]; rate 0.0625 kg/ha): 6.5 | herbicidal rating GLXMAW ([1]; rate 0.1250 kg/ha): 7.0 | herbicidal rating ZEAMX (ZEAMX (Corn, Field); rate 0.0156 kg/ha): 4 | herbicidal rating ZEAMX (ZEAMX (Corn, Field); rate 0.0313 kg/ha): 5.0 | herbicidal rating ZEAMX (ZEAMX (Corn, Field); rate 0.0625 kg/ha): 5.0 | herbicidal rating ZEAMX (ZEAMX (Corn, Field); rate 0.1250 kg/ha): 5.5 | herbicidal rating SETVI (SETVI (Foxtail, Green) [2]; rate 0.0156 kg/ha): 2.0 | herbicidal rating SETVI (SETVI (Foxtail, Green) [2]; rate 0.0313 kg/ha): 6.0 | herbicidal rating SETVI (SETVI (Foxtail, Green) [2]; rate 0.0625 kg/ha): 9.0 | herbicidal rating SETVI (SETVI (Foxtail, Green) [2]; rate 0.1250 kg/ha): 7.0 | herbicidal rating CHEAL ([3]; rate 0.0156 kg/ha): 5.0 | herbicidal rating CHEAL ([3]; rate 0.0313 kg/ha): 6.0 | herbicidal rating CHEAL ([3]; rate 0.0625 kg/ha): 7.0 | herbicidal rating CHEAL ([3]; rate 0.1250 kg/ha): 9.0 | herbicidal rating TRZAWR ([4]; rate 0.0156 kg/ha): 3.0 | herbicidal rating TRZAWR ([4]; rate 0.0313 kg/ha): 3.0 | herbicidal rating TRZAWR ([4]; rate 0.0625 kg/ha): 4.0 | herbicidal rating TRZAWR ([4]; rate 0.1250 kg/ha): 5.0 | Preemergence herbicidal rating GALAP (GALAP (Galium); 0.0156 kg/ha): 0.0 | Preemergence herbicidal rating GALAP (GALAP (Galium); 0.0313 kg/ha): 0.0 | Preemergence herbicidal rating GALAP (GALAP (Galium); 0.0625 kg/ha): 0.0 | Preemergence herbicidal rating GALAP (GALAP (Galium); 0.1250 kg/ha): 4.0 | Preemergence herbicidal rating GALAP (GALAP (Galium); 0.2500 kg/ha): 7.0 | Preemergence herbicidal rating GALAP (GALAP (Galium); 0.5000 kg/ha): 8.0 | Preemergence herbicidal rating AMBEL (AMBEL (Ragweed, Common); 0.0156 kg/ha): 0.0 | Preemergence herbicidal rating AMBEL (AMBEL (Ragweed, Common); 0.0313 kg/ha): 1.0 | Preemergence herbicidal rating AMBEL (AMBEL (Ragweed, Common); 0.0625 kg/ha): 0.0 | Preemergence herbicidal rating AMBEL (AMBEL (Ragweed, Common); 0.1250 kg/ha): 7.0 | Preemergence herbicidal rating AMBEL (AMBEL (Ragweed, Common); 0.2500 kg/ha): 7.0 | Preemergence herbicidal rating AMBEL (AMBEL (Ragweed, Common); 0.5000 kg/ha): 9.0 | herbicidal rating ABUTH (ABUTH (Velvetleaf); rate 0.0156 kg/ha): 9.0 | herbicidal rating ABUTH (ABUTH (Velvetleaf); rate 0.0313 kg/ha): 9.0 | herbicidal rating ABUTH (ABUTH (Velvetleaf); rate 0.0625 kg/ha): 9.0 | herbicidal rating ABUTH (ABUTH (Velvetleaf); rate 0.1250 kg/ha): 9.0 | herbicidal effect rating, CYPIR (CYPIR (Rice Flatsedge); 0.0313 kg/ha): 6.0 | herbicidal effect rating, CYPIR (CYPIR (Rice Flatsedge); 0.0625 kg/ha): 7.0 | herbicidal effect rating, CYPIR (CYPIR (Rice Flatsedge); 0.1250 kg/ha): 9.0 | herbicidal effect rating, CYPIR (CYPIR (Rice Flatsedge); 0.2500 kg/ha): 9.0 | herbicidal rating ORYSAT (ORYSAT (Rice, Tebonnet); rate 0.0156 kg/ha): 2.0 | herbicidal rating ORYSAT (ORYSAT (Rice, Tebonnet); rate 0.0313 kg/ha): 1.5 | herbicidal rating ORYSAT (ORYSAT (Rice, Tebonnet); rate 0.0625 kg/ha): 3.0 | herbicidal rating ORYSAT (ORYSAT (Rice, Tebonnet); rate 0.1250 kg/ha): 4.0 | Preemergence herbicidal rating SETVI (SETVI (Foxtail, Green) [5]; 0.0156 kg/ha): 0.0 | Preemergence herbicidal rating SETVI (SETVI (Foxtail, Green) [5]; 0.0313 kg/ha): 6.0 | Preemergence herbicidal rating SETVI (SETVI (Foxtail, Green) [5]; 0.0625 kg/ha): 6.0 | Preemergence herbicidal rating SETVI (SETVI (Foxtail, Green) [5]; 0.1250 kg/ha): 9.0 | Preemergence herbicidal rating SETVI (SETVI (Foxtail, Green) [5]; 0.2500 kg/ha): 9.0 | Preemergence herbicidal rating SETVI (SETVI (Foxtail, Green) [5]; 0.5000 kg/ha): 9.0
